Columns and labels:
[1] = system: resistant cell lines; test: cells; details: read-out: In vitro cytotoxic activity, IC50, Cell. resist.
Excerpt: (§1) Taxol and colchicine are the comparison substances.
Formulations for the parenteral, oral, transdermal, epicutaneous administrations can be conveniently prepared.

[2] = system: Lung tumoral cell line; test: In vitro cytotoxic (antimitotic) activity on tumoral cell lines, lung; format: cell-based
Excerpt: as §1
(§2) In vitro cytotoxic activity of some novel colchicine derivatives.

[3] = system: Ovary tumoral cell line; test: In vitro cytotoxic (antimitotic) activity on tumoral cell lines, ovary; format: cell-based
Excerpt: as §1, §2

[4] = system: Colon tumoral cell line; test: In vitro cytotoxic (antimitotic) activity on tumoral cell lines, colon; format: cell-based
Excerpt: as §1, §2

[5] = system: Breast tumoral cell line; test: In vitro cytotoxic (antimitotic) activity on tumoral cell lines, breast; format: cell-based
Excerpt: as §1, §2

| SMILES | IC50 [1] [nM] | IC50 [2] [nM] | IC50 [3] [nM] | IC50 [4] [nM] | IC50 [5] [nM] |
| --- | --- | --- | --- | --- | --- |
| COc1cc2c(c(OC)c1OC)-c1ccc(OC)c(=O)cc1[C@@H](NC(C)=O)CC2 [Colchicine, colchicine] | 112 | 16 | 5.3 | 3.9 | 4.4 |
| COc1c(OC(C)C)cc2c(c1OC)-c1ccc(SC)c(=O)cc1[C@@H](NC(=O)C(F)(F)F)CC2 [Compound IIZ, N-desacetyl-N-trifluoroacetyl-3-O-demethyl-3-O-isopropyl-thiocolchicine] | 11 | 19 | 9.4 | 1.8 | 5 |
| COc1cc2c(c(OC)c1OC)-c1ccc(SC)c(=O)cc1[C@@H](NC(=O)[C@@H](NC(=O)C(F)(F)F)c1ccccc1)CC2 [Compound IVZ, N-(N-trifluoroacetyl-α-phenylglycyl)-desacetylthiocolchicine] | 7 | 12 | 6.1 | 2.2 | 4.1 |
| COc1c(OC2CCCC2)cc2c(c1OC)-c1ccc(SC)c(=O)cc1[C@@H](NC(=O)C(F)(F)F)CC2 [Compound IZ, N-desacetyl-N-trifluoroacetyl-3-O-demethyl-3-O-cyclopentyl-thiocolchicine] | 26 | 8 | 4.2 | 2.6 | 6.2 |
| CC(=O)O[C@H]1C(=O)[C@@]2(C)[C@H]([C@H](OC(=O)c3ccccc3)[C@]3(O)C[C@H](OC(=O)[C@H](O)[C@@H](NC(=O)c4ccccc4)c4ccccc4)C(C)=C1C3(C)C)[C@]1(OC(C)=O)CO[C@@H]1C[C@@H]2O [Taxol, reference compound] | 299 | 1.7 | 6.1 | 3.5 | 3.2 |
